Counter-ions that a name gives are not always drawn.
Key:
[1] = tested on: agitation in patients with Alzheimer's Dementia (AD); experiment: Clinical trial of oral fasudil in reducing agitation in patients with Alzheimer's Dementia (CMAI score); assay type: in vivo, human
Procedure: All the patients were treated for 6 weeks with 90 mg per day (30 mg TID) and a subset of patients was treated an additional 6 weeks with 180 mg per day (60 mg TID). […] A variety of assessments were conducted at baseline and at the end of treatment, including the NPI-Q and the CMAI.
Two baseline thresholds were set, and two analyses were done based on the two groupings that resulted. One threshold was based on the agitation/aggression domain of the NPI-Q and the other based on the CMAI score.
The first selection was based on NPI-Q score of ≥4.
The second selection required a baseline CMAI score of ≥20 and this yielded a 13-patient subgroup, having a mean baseline CMAI score of 34.4. […] All the patients selected using the NPI-Q agitation/aggression domain score of ≥4 were also included in this subgroup.
The analysis looked at the CMAI score prior to treatment and compared it to the last day of treatment (6 weeks for the 10 patients on the low dose and 12 weeks for the 3 patients on the high dose).

[2] = in vivo, metabolite; cited from earlier work
[3] = tested on: mice; settings: six-month old mice, 10 mg/kg oral gavage once a day for 30 days; reduction indicates anxiety; cited from earlier work

## O=S(=O)(c1cccc2cnccc12)N1CCCNCC1 [fasudil HCl hemihydrate, Hexahydro-1-(5-isoquinolinesulfonyl)-1H-1,4-diazepine monohydrochloride hemihydrate]
[1]; nineteen AD patients, 90 mg per day (30 mg TID) 6 weeks and 180 mg per day (60 mg TID) additional 6 weeks
  tolerability of treatment regimens: well tolerated

## O=S(=O)(c1cccc2c(O)nccc12)N1CCCNCC1 [M3]
[2]
  half-life: about 8 hours

## O=S(=O)(c1cccc2cnccc12)N1CCCNCC1 [fasudil]
[3]
  amount of time spent in the open arms of the maze: significantly reduced
[1]; six patients with baseline NPI-Q score >=4, 90 mg per day (30 mg TID) for 6 weeks
  difference in mean CMAI score, baseline vs end of treatment: 22.3
[1]; six patients with baseline NPI-Q score >=4, 90 mg per day (30 mg TID) for 6 weeks, mean baseline CMAI 45.3
  mean CMAI score at the end of treatment: 23.0
[1]; thirteen patients with baseline CMAI score >=20, 6 weeks at 90 mg per day (10 patients) or additional 6 weeks at 180 mg per day (3 patients)
  difference in mean CMAI score, prior to treatment vs end of treatment: 12.6
[1]; thirteen patients with baseline CMAI score >=20, 6 weeks at 90 mg per day (10 patients) or additional 6 weeks at 180 mg per day (3 patients), mean baseline CMAI 34.4
  mean CMAI score at the end of treatment: 21.8
